Measured values reported in US20260026504A1, “COMPOUND […] STRUCTURE, APPLICATION, AND INSECTICIDE” (Anhui Shengfeng Biochemical Co., Ltd, priority 2022, published 2026).
Like-named read-outs stand apart in the source and are kept apart here.

Experiments:
[1] = system: diamondback moth (Plutella xylostella) second instar larvae; test: Toxicity to diamondback moth larvae by the leaf-dipping method; type: in vivo; conditions: for mortality at 0.25 ppm / mortality at 1 ppm: Plutella xylostella, in Brassica oleracea, foliar
Procedure: Determining the toxicity activity of part of compounds on diamondback moth (Plutella xylostella) instar larvae by the leafdipping method.
The test agents of the compounds in Table 2 were weighed out accurately with an electronic analytical balance, and the original drug was dissolved in a 10000 ppm solution with dimethyl sulfoxide as the solvent and then diluted with 0.1% of Triton solution to 1 ppm and 0.25 ppm solutions. Taking the cabbage not contacted with the liquid medicine, and cutting the leaves into 6 cm-diameter circular leaves. Soaking the leaves in the prepared liquid medicine for 15 seconds, taking out and drying, and placing the leaves into 6 cm culture dishes, wherein 1 cabbage leaf is placed in each culture dish. The same standard second instar larvae were placed in petri dishes with 10 heads per dish and 4 replicates per concentration for a total of 40 heads. After inoculation, the culture dish is placed in a constant-temperature culture chamber with the temperature of 25±1° C. and the illumination period of 16 (D) to 8 (L) h, and the number of dead and live larvae is investigated after 48 h and 72 h. A blank and a control of compound K1 and compound K2 were also provided.
The mortality is calculated according to the following formula 1, then the corrected mortality is calculated according to the formula 2, and finally the classification is carried out according to the corrected mortality value and the rating standard shown in the table 2, and the specific results are shown in the tables 3 and 4.
(§1) mortality %=(number of dead insects/total number of insects)×100% Equation 1;
(§2) corrected mortality %=[(treatment-control mortality)/(1-control mortality)]×100% Equation 2.

[2] = system: rice leaf rollers (Cnaphalocrocis medinalis) fourth instar larvae; test: Toxicity to rice leaf roller fourth instar larvae by the leaf-dipping method; type: in vivo; conditions: for mortality at 5 ppm: Cnaphalocrocis medinalis, foliar, corrected mortality grade, 48 h, rice leaf dip
Procedure: The toxicity activity of part of the compounds on the fourth instar larvae of the rice leaf rollers (Cnaphalocrocis medinalis) is determined by the leafdipping method.
The test agents of the compounds in Table 2 were weighed out accurately with an electronic analytical balance, and the original drug was dissolved completely in dimethylsulfoxide to 10000 ppm solution and then diluted with 0.1% aqueous solution of Triton to 5 ppm solution. And (4) selecting rice plants which are planted in a laboratory and are not contacted with the liquid medicine, and cutting leaves of the rice plants to about 8 cm. Soaking the leaves in the prepared liquid medicine for 15 seconds, taking out and drying, wrapping the roots with absorbent cotton, and putting the wrapped roots into 9 cm culture dishes, wherein 3-5 rice leaves are placed in each culture dish. The water bamboo sections used as the feed for larvae are peeled off gently, and the four-instar larvae of the same standard are placed in culture dishes with 10 heads per dish and 4 repetitions per concentration for a total of 40 heads. After the inoculation, the culture dish is placed in a constant temperature culture room with the temperature of 26±1° C. and the illumination period of 16 (D): 8 (L) h, and the number of dead and live larvae is investigated after 48 h. A blank and a control of compound K1 and compound K2 were also provided.
The mortality was calculated according to the following formula 1, then the corrected mortality was calculated according to the following formula 2, and finally the rating criteria shown in table 2 were combined for ranking according to the corrected mortality value, and the specific results are shown in table 5.
as §1, §2

[3] = 48 h, corrected mortality grade, cabbage leaf dip
[4] = 48 h, corrected mortality grade, 1 ppm, 48 h, cabbage leaf dip, read-out: mortality (1 ppm) 48 h
[5] = 72 h, corrected mortality grade, 1 ppm, 72 h, cabbage leaf dip, read-out: mortality (1 ppm) 72 h

Row | Structure (SMILES) | mortality at 1 ppm [1, 4] [%] | mortality at 1 ppm [1, 5] [%] | also measured
1 | Cc1cc(C2=NOC(c3cc(Cl)c(F)c(Cl)c3)(C(F)(F)F)C2)ccc1C(=O)Nc1cnn(C(C)C)c1 (stereo not drawn) [Compound 127] | 100 | 100 | mortality at 0.25 ppm [1, 3]: 100%; lethality to Plutella xylostella ([1]; concentration of 0.25 ppm): 100%; mortality at 5 ppm [2]: 100%; lethality to Cnaphalocrocis medinalis ([2]; concentration of 5 ppm): 100%
2 | Cc1cc(C2=NOC(c3cc(Cl)c(F)c(Cl)c3)(C(F)(F)F)C2)ccc1C(=O)Nc1cnn(C(=O)N(C)C)c1 (stereo not drawn) [Compound 149] | 100 | 100 | –
3 | CCN(CC)C(=O)n1cc(NC(=O)c2ccc(C3=NOC(c4cc(Cl)c(F)c(Cl)c4)(C(F)(F)F)C3)cc2C)cn1 (stereo not drawn) [Compound 150] | 80 to 90 | 100 | –
4 | Cc1cc(C2=NOC(c3cc(Cl)c(F)c(Cl)c3)(C(F)(F)F)C2)ccc1C(=O)Nc1cnn(S(C)(=O)=O)c1 (stereo not drawn) [Compound 151] | – | 70 to 80 | –
5 | CCCS(=O)(=O)n1cc(NC(=O)c2ccc(C3=NOC(c4cc(Cl)c(F)c(Cl)c4)(C(F)(F)F)C3)cc2C)cn1 (stereo not drawn) [Compound 153] | 70 to 80 | 90 to 100 | –
6 | Cc1cc(C2=NOC(c3cc(Cl)c(F)c(Cl)c3)(C(F)(F)F)C2)ccc1C(=O)Nc1cnn(S(=O)(=O)C(C)C)c1 (stereo not drawn) [Compound 154] | 80 to 90 | 100 | –
7 | Cc1cc(C2=NOC(c3cc(Cl)c(F)c(Cl)c3)(C(F)(F)F)C2)ccc1C(=O)Nc1cnn(S(=O)(=O)c2ccccc2)c1 (stereo not drawn) [Compound 155] | – | 50 to 70 | –
8 | Cc1cc(C2=NOC(c3cc(Cl)c(F)c(Cl)c3)(C(F)(F)F)C2)ccc1C(=O)Nc1cnn(S(=O)(=O)C2CCCCC2)c1 (stereo not drawn) [Compound 157] | 90 to 100 | 100 | –
9 | Cc1cc(C2=NOC(c3cc(Cl)c(F)c(Cl)c3)(C(F)(F)F)C2)ccc1C(=O)Nc1c(C)n[nH]c1C (stereo not drawn) [Compound 158] | 50 to 70 | 90 to 100 | –
10 | Cc1cc(C2=NOC(c3cc(Cl)c(F)c(Cl)c3)(C(F)(F)F)C2)ccc1C(=O)Nc1c(C)nn(C)c1C (stereo not drawn) [Compound 159] | – | – | mortality (1 ppm) 72 h ([1]; corrected mortality grade, 1 ppm, 72 h, cabbage leaf dip): B (90% to less than 100%)
11 | Cc1cc(C2=NOC(c3cc(Cl)c(F)c(Cl)c3)(C(F)(F)F)C2)ccc1C(=O)Nc1c(C)nn(C)c1C (stereo not drawn) [Compound 160] | 50 to 70 | 70 to 80 | –
12 | CCCn1nc(C)c(NC(=O)c2ccc(C3=NOC(c4cc(Cl)c(F)c(Cl)c4)(C(F)(F)F)C3)cc2C)c1C (stereo not drawn) [Compound 161] | – | 90 to 100 | –
13 | Cc1cc(C2=NOC(c3cc(Cl)c(F)c(Cl)c3)(C(F)(F)F)C2)ccc1C(=O)Nc1c(C)nn(C(C)C)c1C (stereo not drawn) [Compound 162] | 50 to 70 | 100 | –
14 | CC(=O)n1nc(C)c(NC(=O)c2ccc(C3=NOC(c4cc(Cl)c(F)c(Cl)c4)(C(F)(F)F)C3)cc2C)c1C (stereo not drawn) [Compound 168] | – | 90 to 100 | –
15 | CCC(=O)n1nc(C)c(NC(=O)c2ccc(C3=NOC(c4cc(Cl)c(F)c(Cl)c4)(C(F)(F)F)C3)cc2C)c1C (stereo not drawn) [Compound 169] | – | 80 to 90 | –
16 | CCCC(=O)n1nc(C)c(NC(=O)c2ccc(C3=NOC(c4cc(Cl)c(F)c(Cl)c4)(C(F)(F)F)C3)cc2C)c1C (stereo not drawn) [Compound 170] | – | 80 to 90 | –
17 | Cc1cc(C2=NOC(c3cc(Cl)c(F)c(Cl)c3)(C(F)(F)F)C2)ccc1C(=O)Nc1c(C)nn(C(=O)C(C)C)c1C (stereo not drawn) [Compound 171] | – | 80 to 90 | –
18 | Cc1cc(C2=NOC(c3cc(Cl)c(F)c(Cl)c3)(C(F)(F)F)C2)ccc1C(=O)Nc1c(C)nn(C(=O)C2CCC2)c1C (stereo not drawn) [Compound 174] | – | 70 to 80 | –
19 | Cc1cc(C2=NOC(c3cc(Cl)c(F)c(Cl)c3)(C(F)(F)F)C2)ccc1C(=O)Nc1c(C)nn(C(=O)N(C)C)c1C (stereo not drawn) [Compound 177] | – | 80 to 90 | –
20 | Cc1cc(C2=NOC(c3cc(Cl)cc(Cl)c3)(C(F)(F)F)C2)ccc1C(=O)Nc1ccn(C)n1 (stereo not drawn) [Compound K1, reference compound] | < 50 | < 50 | mortality at 0.25 ppm [1, 3]: < 50%; mortality at 5 ppm [2]: < 50%
